These are literature values, as cited in article PMC6929995, “Rod-shape theranostic nanoparticles facilitate antiretroviral drug biodistribution and activity in human immunodeficiency virus susceptible cells and tissues” (Theranostics, 2020).

This data set has as its system HIV-1.

In the case of `Cc1cc(/C=C/C#N)cc(C)c1Nc1ccnc(Nc2ccc(C#N)cc2)n1` [RPV, rilpivirine], the potency result is on record as “sub-nanomolar range”.
